Laboratory results taken from the kinase profiling compilation of Christmann-Franck et al. (2016).

Legend:
Experiment in all cases: KINOMEscan competition binding
Settings in all cases: compound 10.0 µM
[1] = biological target: FRK (human) (UniProt P42685)
[2] = tested on: FLT3 (human), P36888 [ITD]
[3] = biological target: STK32C (human) (UniProt Q86UX6)
[4] = biological target: STK11 (human) (UniProt Q15831)
[5] = biological target: CAMK2A (human) (UniProt Q9UQM7)
[6] = biological target: RPS6KA5 KD1 (human) (UniProt O75582)
[7] = biological target: CDK18 (human) (UniProt Q07002)
[8] = biological target: CDC42BPA (human) (UniProt Q5VT25)
[9] = biological target: PIM2 (human) (UniProt Q9P1W9)
[10] = biological target: NEK2 (human) (UniProt P51955)
[11] = biological target: MAPK13 (human) (UniProt O15264)
[12] = biological target: DYRK1B (human) (UniProt Q9Y463)
[13] = biological target: PAK4 (human) (UniProt O96013)
[14] = biological target: CAMK2D (human) (UniProt Q13557)
[15] = biological target: TTK (human) (UniProt P33981)
[16] = biological target: WEE1 (human) (UniProt P30291)
[17] = biological target: MAP2K4 (human) (UniProt P45985)
[18] = biological target: FYN (human) (UniProt P06241)
[19] = biological target: SIK1 (human) (UniProt P57059)
[20] = biological target: RPS6KA4 KD2 (human) (UniProt O75676)
[21] = biological target: MAP4K3 (human) (UniProt Q8IVH8)
[22] = biological target: ACVRL1 (human) (UniProt P37023)
[23] = biological target: MAPK14 (human) (UniProt Q16539)
[24] = biological target: MARK1 (human) (UniProt Q9P0L2)
[25] = biological target: MKNK1 (human) (UniProt Q9BUB5)
[26] = biological target: MAPK3 (human) (UniProt P27361)
[27] = biological target: GSK3B (human) (UniProt P49841)
[28] = biological target: EPHB1 (human) (UniProt P54762)
[29] = biological target: RAF1 (human) (UniProt P04049)
[30] = biological target: IKBKB (human) (UniProt O14920)
[31] = biological target: AAK1 (human) (UniProt Q2M2I8)
[32] = biological target: CDK8 (human) (UniProt P49336)
[33] = biological target: SYK (human) (UniProt P43405)
[34] = biological target: TLK1 (human) (UniProt Q9UKI8)
[35] = biological target: NTRK2 (human) (UniProt Q16620)
[36] = biological target: DDR2 (human) (UniProt Q16832)
[37] = biological target: MAP4K1 (human) (UniProt Q92918)
[38] = biological target: MARK4 (human) (UniProt Q96L34)
[39] = biological target: STK36 (human) (UniProt Q9NRP7)
[40] = biological target: AURKC (human) (UniProt Q9UQB9)
Sequence of AURKC (human) (Q9UQB9 whole entry, looked up): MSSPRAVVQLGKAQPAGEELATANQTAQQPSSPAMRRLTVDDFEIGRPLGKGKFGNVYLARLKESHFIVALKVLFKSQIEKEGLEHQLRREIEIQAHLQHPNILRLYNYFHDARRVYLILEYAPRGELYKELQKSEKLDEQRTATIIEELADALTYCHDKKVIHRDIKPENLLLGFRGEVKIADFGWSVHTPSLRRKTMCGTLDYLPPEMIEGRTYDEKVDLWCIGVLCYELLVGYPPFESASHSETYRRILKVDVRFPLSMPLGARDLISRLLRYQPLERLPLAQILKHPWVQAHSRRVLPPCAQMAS

Sequence of MKNK1 (human) (Q9BUB5 whole entry, looked up): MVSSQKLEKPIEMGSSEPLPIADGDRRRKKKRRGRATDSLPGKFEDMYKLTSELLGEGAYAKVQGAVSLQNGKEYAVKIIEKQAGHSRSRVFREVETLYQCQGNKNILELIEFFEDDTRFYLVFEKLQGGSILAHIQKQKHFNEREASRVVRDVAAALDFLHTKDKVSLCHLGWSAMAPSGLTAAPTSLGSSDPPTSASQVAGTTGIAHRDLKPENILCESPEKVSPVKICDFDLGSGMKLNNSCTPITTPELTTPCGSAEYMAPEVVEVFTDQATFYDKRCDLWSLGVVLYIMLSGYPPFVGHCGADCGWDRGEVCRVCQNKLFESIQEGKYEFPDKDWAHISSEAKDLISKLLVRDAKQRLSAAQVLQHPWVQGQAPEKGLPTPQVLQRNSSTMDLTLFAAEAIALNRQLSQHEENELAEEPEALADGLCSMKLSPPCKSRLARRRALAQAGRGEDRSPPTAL
Sequence of FYN (human) (P06241 whole entry, looked up): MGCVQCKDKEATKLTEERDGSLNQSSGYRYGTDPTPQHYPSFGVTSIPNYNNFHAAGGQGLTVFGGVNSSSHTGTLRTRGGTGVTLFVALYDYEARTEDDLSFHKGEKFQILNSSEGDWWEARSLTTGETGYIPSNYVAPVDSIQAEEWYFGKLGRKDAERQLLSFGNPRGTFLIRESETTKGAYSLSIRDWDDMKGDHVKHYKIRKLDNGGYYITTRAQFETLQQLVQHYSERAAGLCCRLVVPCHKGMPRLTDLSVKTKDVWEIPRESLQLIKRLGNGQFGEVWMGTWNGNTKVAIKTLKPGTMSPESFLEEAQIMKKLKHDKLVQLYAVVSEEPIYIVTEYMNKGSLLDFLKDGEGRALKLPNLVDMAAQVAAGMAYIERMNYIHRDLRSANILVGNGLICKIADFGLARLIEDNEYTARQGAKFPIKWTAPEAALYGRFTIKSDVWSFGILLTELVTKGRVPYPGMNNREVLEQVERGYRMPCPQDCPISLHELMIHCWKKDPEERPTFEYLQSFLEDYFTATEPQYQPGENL
Sequence of MAPK13 (human) (O15264 whole entry, looked up): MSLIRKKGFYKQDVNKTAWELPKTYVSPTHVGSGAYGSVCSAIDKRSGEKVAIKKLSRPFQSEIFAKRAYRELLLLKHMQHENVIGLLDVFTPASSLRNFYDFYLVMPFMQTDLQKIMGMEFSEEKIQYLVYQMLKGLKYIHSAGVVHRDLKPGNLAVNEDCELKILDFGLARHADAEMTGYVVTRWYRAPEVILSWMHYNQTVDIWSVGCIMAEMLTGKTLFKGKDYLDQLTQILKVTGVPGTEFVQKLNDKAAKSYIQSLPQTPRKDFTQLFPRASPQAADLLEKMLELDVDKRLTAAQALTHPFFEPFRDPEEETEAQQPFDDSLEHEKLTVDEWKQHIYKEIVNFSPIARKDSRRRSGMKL
Sequence of MAP4K3 (human) (Q8IVH8 whole entry, looked up): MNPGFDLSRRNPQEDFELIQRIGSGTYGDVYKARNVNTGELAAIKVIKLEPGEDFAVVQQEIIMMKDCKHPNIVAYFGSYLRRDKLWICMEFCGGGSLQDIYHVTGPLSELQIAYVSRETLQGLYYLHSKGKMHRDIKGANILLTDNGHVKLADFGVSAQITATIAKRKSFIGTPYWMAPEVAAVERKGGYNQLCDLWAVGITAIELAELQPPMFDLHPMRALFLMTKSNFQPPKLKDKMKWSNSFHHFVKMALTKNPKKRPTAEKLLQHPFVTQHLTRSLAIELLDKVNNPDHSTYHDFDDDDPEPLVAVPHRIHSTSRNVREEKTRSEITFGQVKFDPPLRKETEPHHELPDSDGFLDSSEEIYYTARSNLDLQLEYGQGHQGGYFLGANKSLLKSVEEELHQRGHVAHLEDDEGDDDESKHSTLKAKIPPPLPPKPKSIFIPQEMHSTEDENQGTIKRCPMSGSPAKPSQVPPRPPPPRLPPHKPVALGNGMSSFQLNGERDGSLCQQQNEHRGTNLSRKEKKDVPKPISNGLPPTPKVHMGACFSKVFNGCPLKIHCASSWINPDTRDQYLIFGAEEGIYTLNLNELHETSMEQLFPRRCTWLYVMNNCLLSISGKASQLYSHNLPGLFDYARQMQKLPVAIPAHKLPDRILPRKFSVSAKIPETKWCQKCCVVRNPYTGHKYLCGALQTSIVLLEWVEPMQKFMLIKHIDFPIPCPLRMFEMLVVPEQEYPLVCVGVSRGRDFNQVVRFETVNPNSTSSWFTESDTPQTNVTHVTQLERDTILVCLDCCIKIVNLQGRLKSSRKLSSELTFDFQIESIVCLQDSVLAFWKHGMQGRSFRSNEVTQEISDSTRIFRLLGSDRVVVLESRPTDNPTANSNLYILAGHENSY
Sequence of CDK18 (human) (Q07002 whole entry, looked up): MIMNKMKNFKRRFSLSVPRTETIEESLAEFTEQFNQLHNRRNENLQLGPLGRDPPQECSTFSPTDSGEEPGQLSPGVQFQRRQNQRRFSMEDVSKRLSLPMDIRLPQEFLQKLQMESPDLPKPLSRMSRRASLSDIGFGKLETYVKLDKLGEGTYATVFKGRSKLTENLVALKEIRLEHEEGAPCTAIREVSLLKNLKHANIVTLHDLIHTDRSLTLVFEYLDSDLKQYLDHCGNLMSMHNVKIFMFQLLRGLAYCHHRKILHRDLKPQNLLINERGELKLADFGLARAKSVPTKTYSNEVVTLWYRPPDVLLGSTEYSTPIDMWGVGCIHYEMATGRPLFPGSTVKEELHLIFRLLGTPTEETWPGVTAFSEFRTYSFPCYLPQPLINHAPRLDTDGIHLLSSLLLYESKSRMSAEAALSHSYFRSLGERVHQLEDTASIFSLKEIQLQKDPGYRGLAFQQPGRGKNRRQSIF
Sequence of AAK1 (human) (Q2M2I8 whole entry, looked up): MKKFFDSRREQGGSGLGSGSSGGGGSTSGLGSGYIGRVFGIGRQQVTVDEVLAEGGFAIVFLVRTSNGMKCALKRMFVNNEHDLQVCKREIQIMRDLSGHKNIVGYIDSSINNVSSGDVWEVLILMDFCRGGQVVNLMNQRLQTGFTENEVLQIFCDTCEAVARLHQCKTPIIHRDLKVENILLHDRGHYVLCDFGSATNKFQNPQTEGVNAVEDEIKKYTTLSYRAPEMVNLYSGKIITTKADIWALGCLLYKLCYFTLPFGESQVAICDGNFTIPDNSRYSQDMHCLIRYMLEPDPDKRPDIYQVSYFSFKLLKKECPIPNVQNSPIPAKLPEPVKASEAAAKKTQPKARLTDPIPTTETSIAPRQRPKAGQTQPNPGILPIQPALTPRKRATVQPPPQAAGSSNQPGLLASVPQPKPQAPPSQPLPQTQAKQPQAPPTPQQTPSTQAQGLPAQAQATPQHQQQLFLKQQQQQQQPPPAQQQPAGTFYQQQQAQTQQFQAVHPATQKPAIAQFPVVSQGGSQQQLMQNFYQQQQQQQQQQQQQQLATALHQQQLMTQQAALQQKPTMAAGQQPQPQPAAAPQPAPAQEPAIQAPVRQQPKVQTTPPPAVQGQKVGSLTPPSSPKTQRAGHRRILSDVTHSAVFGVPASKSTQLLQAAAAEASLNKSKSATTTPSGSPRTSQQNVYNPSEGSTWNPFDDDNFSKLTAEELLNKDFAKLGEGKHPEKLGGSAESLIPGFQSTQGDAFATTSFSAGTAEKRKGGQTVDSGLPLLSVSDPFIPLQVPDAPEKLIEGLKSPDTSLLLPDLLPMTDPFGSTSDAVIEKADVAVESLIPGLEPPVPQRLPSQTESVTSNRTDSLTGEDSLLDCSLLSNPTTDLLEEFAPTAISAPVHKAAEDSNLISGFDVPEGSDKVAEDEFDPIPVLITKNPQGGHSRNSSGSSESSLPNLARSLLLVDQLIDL
Sequence of WEE1 (human) (P30291 whole entry, looked up): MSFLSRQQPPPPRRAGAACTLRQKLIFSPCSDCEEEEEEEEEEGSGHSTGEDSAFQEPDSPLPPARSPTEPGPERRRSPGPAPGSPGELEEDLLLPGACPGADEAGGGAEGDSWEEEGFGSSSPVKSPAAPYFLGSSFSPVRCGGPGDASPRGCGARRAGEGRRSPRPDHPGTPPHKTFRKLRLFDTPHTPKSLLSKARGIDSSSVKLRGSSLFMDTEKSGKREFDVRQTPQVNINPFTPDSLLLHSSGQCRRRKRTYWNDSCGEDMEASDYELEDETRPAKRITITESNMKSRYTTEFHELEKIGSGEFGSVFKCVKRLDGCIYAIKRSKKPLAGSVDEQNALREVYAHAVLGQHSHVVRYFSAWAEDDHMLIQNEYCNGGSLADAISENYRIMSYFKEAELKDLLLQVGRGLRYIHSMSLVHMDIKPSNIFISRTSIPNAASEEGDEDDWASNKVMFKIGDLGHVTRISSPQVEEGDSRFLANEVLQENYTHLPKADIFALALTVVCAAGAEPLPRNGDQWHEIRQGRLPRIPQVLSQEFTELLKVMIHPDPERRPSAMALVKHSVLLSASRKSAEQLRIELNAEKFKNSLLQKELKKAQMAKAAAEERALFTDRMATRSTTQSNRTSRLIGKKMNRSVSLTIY
Sequence of MAPK14 (human) (Q16539 whole entry, looked up): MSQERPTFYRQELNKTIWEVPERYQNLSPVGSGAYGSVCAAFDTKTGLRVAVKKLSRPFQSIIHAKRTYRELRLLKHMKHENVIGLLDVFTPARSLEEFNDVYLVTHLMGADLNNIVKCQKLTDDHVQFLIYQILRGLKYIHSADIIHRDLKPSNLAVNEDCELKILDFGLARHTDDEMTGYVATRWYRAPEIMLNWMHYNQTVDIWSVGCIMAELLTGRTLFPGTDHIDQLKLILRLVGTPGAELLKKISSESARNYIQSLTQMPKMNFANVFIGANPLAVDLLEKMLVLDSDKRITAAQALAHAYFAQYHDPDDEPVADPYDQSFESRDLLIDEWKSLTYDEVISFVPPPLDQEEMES

Structure (SMILES) | kinase still bound, per cent of control [1] | kinase still bound, per cent of control [2] | kinase still bound, per cent of control [3] | kinase still bound, per cent of control [4] | kinase still bound, per cent of control [5] | kinase still bound, per cent of control [6] | kinase still bound, per cent of control [7] | kinase still bound, per cent of control [8] | kinase still bound, per cent of control [9] | kinase still bound, per cent of control [10] | kinase still bound, per cent of control [11] | kinase still bound, per cent of control [12] | kinase still bound, per cent of control [13] | kinase still bound, per cent of control [14] | kinase still bound, per cent of control [15] | kinase still bound, per cent of control [16] | kinase still bound, per cent of control [17] | kinase still bound, per cent of control [18] | kinase still bound, per cent of control [19] | kinase still bound, per cent of control [20] | further results
C=CC(=O)Nc1cccc(Nc2nc(N[C@H]3CC[C@H](N(C)C)CC3)nc3c2ncn3C(C)C)c1 | 53% | 1% | 98% | 66% | 34% | 93% | 77% | 82% | 100% | 94% | 94% | 49% | 17% | 53% | 51% | 51% | 76% | 23% | 85% | 52% | kinase still bound, per cent of control [21]: 25%; kinase still bound, per cent of control [22]: 100%; kinase still bound, per cent of control [23]: 95%; kinase still bound, per cent of control [24]: 94%; kinase still bound, per cent of control [25]: 32%; kinase still bound, per cent of control [26]: 100%; kinase still bound, per cent of control [27]: 94%; kinase still bound, per cent of control [28]: 84%; kinase still bound, per cent of control [29]: 100%; kinase still bound, per cent of control [30]: 76%; kinase still bound, per cent of control [31]: 45%; kinase still bound, per cent of control [32]: 100%; kinase still bound, per cent of control [33]: 72%; kinase still bound, per cent of control [34]: 100%; kinase still bound, per cent of control [35]: 5.3%; kinase still bound, per cent of control [36]: 100%; kinase still bound, per cent of control [37]: 74%; kinase still bound, per cent of control [38]: 94%; kinase still bound, per cent of control [39]: 100%; kinase still bound, per cent of control [40]: 69%
N#Cc1c(NC(=O)c2cccc3ccccc23)sc2c1CCCC2 | 58% | 97% | 97% | 81% | 92% | 85% | 95% | 100% | 69% | 65% | 46% | 89% | 100% | 93% | 91% | 64% | 94% | 63% | 92% | 100% | kinase still bound, per cent of control [21]: 79%; kinase still bound, per cent of control [22]: 100%; kinase still bound, per cent of control [23]: 100%; kinase still bound, per cent of control [24]: 100%; kinase still bound, per cent of control [25]: 100%; kinase still bound, per cent of control [26]: 74%; kinase still bound, per cent of control [27]: 66%; kinase still bound, per cent of control [28]: 91%; kinase still bound, per cent of control [29]: 100%; kinase still bound, per cent of control [30]: 72%; kinase still bound, per cent of control [31]: 91%; kinase still bound, per cent of control [32]: 100%; kinase still bound, per cent of control [33]: 99%; kinase still bound, per cent of control [34]: 76%; kinase still bound, per cent of control [35]: 100%; kinase still bound, per cent of control [36]: 100%; kinase still bound, per cent of control [37]: 89%; kinase still bound, per cent of control [38]: 97%; kinase still bound, per cent of control [39]: 66%; kinase still bound, per cent of control [40]: 87%
Cc1ccc(NC(=O)c2cccc(C(C)(C)C#N)c2)cc1Nc1ccc2ncn(C)c(=O)c2c1 | 2.8% | 78% | 100% | 100% | 100% | 100% | 100% | 100% | 100% | 100% | 9.6% | 100% | 72% | 100% | 95% | 100% | 100% | 3.6% | 30% | 94% | kinase still bound, per cent of control [21]: 94%; kinase still bound, per cent of control [22]: 100%; kinase still bound, per cent of control [23]: 0%; kinase still bound, per cent of control [24]: 100%; kinase still bound, per cent of control [25]: 100%; kinase still bound, per cent of control [26]: 100%; kinase still bound, per cent of control [27]: 95%; kinase still bound, per cent of control [28]: 1%; kinase still bound, per cent of control [29]: 2.3%; kinase still bound, per cent of control [30]: 94%; kinase still bound, per cent of control [31]: 100%; kinase still bound, per cent of control [32]: 22%; kinase still bound, per cent of control [33]: 100%; kinase still bound, per cent of control [34]: 100%; kinase still bound, per cent of control [35]: 77%; kinase still bound, per cent of control [36]: 21%; kinase still bound, per cent of control [37]: 63%; kinase still bound, per cent of control [38]: 100%; kinase still bound, per cent of control [39]: 88%; kinase still bound, per cent of control [40]: 100%
